Source: patent US20240082273A1, “NEUROKININ INHIBITORS SUCH AS APREPITANT FOR TREATING NON SMALL CELL LUNG CARCINOMA OR BREAST CANCER WITHOUT MUTATIONS” (priority 2020, published 2024)

Experiments:
[1] = Xenograft mouse safety model (body weight, autopsy); type: in vivo, C57BL/6J mice
Description: Fosaprepitant dimeglumine salt (CAS No 265121-04-8) was purchased from Selleck Chemicals and administered intraperitoneally at 30, 60 and 100 mg/kg dose, once a day. Fosaprepitant is a pro-drug available for parenteral administration that in the body, once administered, becomes aprepitant.
3LL cells (0.6×10^6 per mouse) or B16F10 cells (1×10^6 per mouse) were subcutaneously injected into the right flank of C57BL/6J mice (Charles River) with matrigel (Matrigel Membrane Matrix, Corning) at 50% v/v. Tumour growth was evaluated every 2/3 days. Animal vital parameters were monitored daily. When the tumours reached an average volume of 100-150 mm ^3, mice were randomized into cohorts of 6 animals each and treatments were administered for 7-9 days. Groups and regimens for each experiment are described in Table 1. Animals of the control group were dosed with equal volume of vehicle. Animals were euthanized according to institutional guidelines and tumour samples were excised. Tumours were snap-frozen in OCT medium (Sakura Tissue Tek) or fixed in PFA and embedded in paraffin. Several internal organs were also excised and fixed in PFA for future studies.

H460 = assay: MTT proliferation, H460; type: cell-based, human; conditions: 48 hours
Description: EGFR, ALK and ROS1 are key molecular factors that may be used to determine pathological classification, prognosis, therapeutics and behaviour in patients with lung cancer. EGFR, ALK and ROS1 are biomarkers routinely analysed in the clinical practice of the management of patients with NSCLC. NSCLC with molecular profile EGFR-/ALK-/ROS1- presents a better response to treatment with the NK1 inhibitor aprepitant, compared to lung cancer with different profiles (in particular, EGFR+/ALK-/ROS1- and EGFR-/ALK+/ROS1-, in which EGFR and ALK respectively contain mutations relative to their wild type gene). Commercial lines of lung cancer were used as shown in Table 2 together with their molecular profile. The molecular profile of the cancer cell lines was determined by sequencing and can be consulted in the Cancer Cell Line Encyclopaedia database of public access available at the url: https://portals.broadinstitute.org/ccle All cells were cultured in wells under vendor-recommended conditions and exposed to different concentrations of aprepitant for 48 hours. In each case a group of wells of cells were used to which no treatment was applied and which were considered as controls. At 48 hours the number of cells was measured. Eight cell lines of human were used for the study of NK1 inhibitors (Table 3). All of them were maintained in culture in their respective culture media (Gibco,Thermo Fisher Scientific) supplemented with 10% foetal bovine serum (FBS) (Gibco, Thermo Fisher Scientific), 2 mM L-Glutamine (Gln) (Sigma-Aldrich, Merk), and […] and […] Gibco, Thermo Fisher Scientific) in a humidified incubator at 37° C. and 5% CO2. Cell culture media used are Dulbecco's Modified Eagle Medium (DMEM), and RPMI Medium 1640 (RPMI-1640). To measure cell viability, the cytotoxicity of drugs in culture was evaluated using the 3-(4,5-Dimethyl-2-thiazolyl)-2,5-diphenyl-2H-tetrazolium bromide (MTT) reduction assay. This assay assesses cell viability through the indirect measurement of the activity of reductases that convert yellow soluble MTT into purple insoluble formazan salts. As MTT can only be reduced when these enzymes are active, the reaction is used as an indicator of the cell metabolic competence and, therefore, of viability. A variable number of cells (depending on the cell line) were seeded in 96 multi-well plates and grown during 24 hours. The following day, the culture medium was aspirated and fresh culture medium with the drug dissolved was added to the wells. After 24 hours or 48 hours cell viability was measurement by adding 10 μl of a 5 mg/ml MTT solution (M5655; Sigma-Aldrich) and 100 μl of HCl 0.01M-SDS 10% solution 4 hours later. After 24 hours, the absorbance was measured at 595 nm, using a multi-well plate reader (iMark, Bio-rad). Each condition was tested 5 times, obtaining 5 values of absorbance. All sample measurements were corrected using the blank (culture medium without cells) mean absorbance value, and normalized to positive control to determinate relative cell viability for each condition at 24 and 48 hours.

[2] = test system: breast cancer cell line ER+/PR+/HER2+ (BT474); assay: MTT proliferation, breast cancer cell line ER+/PR+/HER2+; type: cell-based, human; conditions: 48 hours
Description: (§1) All cells were cultured in wells under vendor-recommended conditions and exposed to different concentrations of aprepitant for 48 hours. In each case a group of wells of cells were used to which no treatment was applied and which were considered as controls. At 48 hours the number of cells was measured. To measure cell viability, the cytotoxicity of drugs in culture was evaluated using the 3-(4,5-Dimethyl-2-thiazolyl)-2,5-diphenyl-2H-tetrazolium bromide (MTT) reduction assay. This assay assesses cell viability through the indirect measurement of the activity of reductases that convert yellow soluble MTT into purple insoluble formazan salts. As MTT can only be reduced when these enzymes are active, the reaction is used as an indicator of the cell metabolic competence and, therefore, of viability. A variable number of cells (depending on the cell line) were seeded in 96 multi-well plates and grown during 24 hours. The following day, the culture medium was aspirated and fresh culture medium with the drug dissolved was added to the wells. After 24 hours or 48 hours cell viability was measurement by adding 10 μl of a 5 mg/ml MTT solution (M5655; Sigma-Aldrich) and 100 μl of HCl 0.01M-SDS 10% solution 4 hours later. After 24 hours, the absorbance was measured at 595 nm, using a multi-well plate reader (iMark, Bio-rad). Each condition was tested 5 times, obtaining 5 values of absorbance. All sample measurements were corrected using the blank (culture medium without cells) mean absorbance value, and normalized to positive control to determinate relative cell viability for each condition at 24 and 48 hours.

[3] = test system: breast cancer cell lines ER+/PR+/HER2− (MCF7, T47D); assay: MTT proliferation, breast cancer cell lines ER+/PR+/HER2−; type: cell-based, human; conditions: 48 hours
Description: as §1

Structure (SMILES): C[C@@H](O[C@H]1OCCN(Cc2nc(=O)[nH][nH]2)[C@H]1c1ccc(F)cc1)c1cc(C(F)(F)F)cc(C(F)(F)F)c1 [Aprepitant]
- autopsy, organs explored microscopically: signs of toxicity ([1]; all animals, 30, 60 and 100 mg/kg/day): no significant signs of toxicity
- safety (body weight, histological study of the main organs) ([1]; mouse, in vivo, 100 mg/kg/day): safe
- Mean proliferation (H460; aprepitant 1 μM): 91.72
- Mean proliferation (H460; aprepitant 3 μM): 100.26
- Mean proliferation (H460; aprepitant 5 μM): 67.81
- Mean proliferation (H460; aprepitant 10 μM): 56.01
- Mean proliferation (H460; aprepitant 20 μM): 31.24
- Mean proliferation (H460; aprepitant 30 μM): 18.27
- Mean proliferation (H460; aprepitant 40 μM): 14.74
- Mean proliferation (H460; aprepitant 50 μM): −0.95
- Mean proliferation (H460; aprepitant 60 μM): −1.95
- Mean proliferation ([2]; aprepitant 0.3 μM): 100.88
- Mean proliferation ([2]; aprepitant 1 μM): 101.83
- Mean proliferation ([2]; aprepitant 3 μM): 91.36
- Mean proliferation ([2]; aprepitant 10 μM): 85.45
- Mean proliferation ([2]; aprepitant 20 μM): 80.23
- Mean proliferation ([2]; aprepitant 30 μM): 57.51
- Mean proliferation ([2]; aprepitant 40 μM): 43.65
- Mean proliferation ([2]; aprepitant 50 μM): 23.8
- Mean proliferation ([2]; aprepitant 60 μM): 9.29
- Mean proliferation ([3]; aprepitant 0.3 μM): 102.47
- Mean proliferation ([3]; aprepitant 1 μM): 99.16
- Mean proliferation ([3]; aprepitant 3 μM): 106.96
- Mean proliferation ([3]; aprepitant 10 μM): 81.55
- Mean proliferation ([3]; aprepitant 20 μM): 67.98
- Mean proliferation ([3]; aprepitant 30 μM): 54.13
- Mean proliferation ([3]; aprepitant 40 μM): 35.22
- Mean proliferation ([3]; aprepitant 50 μM): 21.79
- Mean proliferation ([3]; aprepitant 60 μM): 11.7
